Results as given in patent US7557116B2, “Substance which exhibits antiviral and antibacterial activity and is based on derivatives of 2,8-dithioxo-1H-pyrano[2,3d 6,5-d′]dipyrimidyne and 10-aza-analogue thereof” (priority 2003, dated 2009).

Tests used:
Type in all cases: cell-based
[1] = tested on: Influenza virus B; conditions: Influenza virus B; 72 hours at 33-34 C; ineffective when IN less than 1.0
[2] = tested on: Chlamydia trachomatis D323; test: Protection of cell culture from Chlamydia trachomatis (immunofluorescence, cytoplasmatic inclusions)
From the text: The antiviral activity of the claimed compounds were also all tested against the Chlemydia trachomatis. The effects of the claimed compounds on the Chlamydia trachomatis are charted in TABLE 4. A relative strain of Chlamydia trachomatis D323 was used to test the claimed compounds. The strain, derived from a patient with Chlamydia urethritis, comprised a morphology and a physiological activity characteristic of and representative of that type. An infection dose of Chlamydia having a concentration of 1/10^6 cells/ml was introduced into a cell culture. Immunofluorescence (MicroTrack Chlamydia trachomatis Direct Specimen Test) was conducted to determine the significance of the chlamydial cytoplasmatic inclusions (CPI). A CylaMonoScreen was conducted to obtain the chlamydia antigens. The monolayer state and the number of cells with CPI were compared to the control to determine the effects the claimed compounds have on the chlamydia. The number of unchanged cells in 100 visual fields were counted utilizing a special net on a microscopic eyepiece.

[3] = tested on: Human Immunodeficiency Virus; test: Anti-HIV activity alone and in combination with azidothymidin in MT4 cells; conditions: read-out: Level of inhibition of virus reproduction
Method: Activity against the Human immunodeficiency Virus (HIV) was also determined and, more specifically, the compounds antiviral effectiveness in protecting the T-lymphoblastoid cells MT4 from being infected by the virus-containing liquid of HTHIV27 cultures. The cells infected by the virus were analyzed according to the following methods: (1) An indirect immunofluorescence (IFA) with a polyclonal anti-serum was received from an HIV Infected human (the antibody titer in the IFA was 1:1000000) and, (2) A competitive IFA was utilized with monoclonal antibodies (MonAb) to p24 HIV and a polyclonal substrate. A solution of 1:540 was used in the tests. […] The methods utilized to analyze the compounds effectiveness were the same as the foregoing methods.

[4] = tested on: Influenza virus A; conditions: Influenza virus A; 48 hours at 33-34 C; ineffective when IN less than 1.0
[5] = tested on: Human Immunodeficiency Virus Type 1; test: Anti-HIV activity: protection of MT4 T-lymphoblastoid cells (IFA); conditions: read-out: Level of inhibition of virus reproduction
Method: Activity against the Human immunodeficiency Virus (HIV) was also determined and, more specifically, the compounds antiviral effectiveness in protecting the T-lymphoblastoid cells MT4 from being infected by the virus-containing liquid of HTHIV27 cultures. The cells infected by the virus were analyzed according to the following methods: (1) An indirect immunofluorescence (IFA) with a polyclonal anti-serum was received from an HIV Infected human (the antibody titer in the IFA was 1:1000000) and, (2) A competitive IFA was utilized with monoclonal antibodies (MonAb) to p24 HIV and a polyclonal substrate. A solution of 1:540 was used in the tests. Azidothymidin (AZT) was used as the control.
The results documented in the table shown in TABLE 6 evidence that the compounds tested inhibit the reproduction of the Human Immunodeficiency Virus Type 1.

SMILES: O=[N+]([O-])c1ccc(C2c3c(O)nc(=S)[nH]c3Oc3[nH]c(=S)nc(Cl)c32)cc1 (stereo not drawn) [Ib, 4-chlorine-6-hydroxi-5-(4-nitrophenyl)-5,9-dihydro-1H-pyrano[2,3-d: 6,5-d′]dipyrimidine-2,8-dition]
- Index of neutralization [1]: 0.5
- Percentage of cells' defense from C. trachomatis ([2]; compound 30 mg/l): 60%
- Percentage of cells' defense from C. trachomatis ([2]; compound 100 mg/l): 80%
- inhibition at 0.5 µg/mL ([3]; Human immunodeficiency virus 1, 0.5 mg/l): 20%
- inhibition at 5 µg/mL ([3]; Human immunodeficiency virus 1, 5.0 mg/l): 70%
- Index of neutralization [4]: 0.5
- inhibition at 5 µg/mL ([5]; Human immunodeficiency virus 1, 5 mg/l): 70%
- inhibition at 50 µg/mL ([5]; Human immunodeficiency virus 1, 50 mg/l): 90%
- inhibition at 100 µg/mL ([5]; Human immunodeficiency virus 1, 100 mg/l): 100%
